{
  "source": "patent US20170190671A1",
  "about": "“BIS(ARYL)CATECHOL DERIVATIVES AS HERBICIDES” (E I DU PONT DE NEMOURS AND COMPANY, priority 2014, published 2017)",
  "assay_in_all_cases": "Test C preemergence",
  "type_in_all_cases": "in vivo",
  "key": {"[1]": {"system": "Italian ryegrass (Lolium multiflorum)", "conditions": "Lolium multiflorum, pre-emergence, 336 h, scale 0 to 100, read-out: Plant response rating, Ryegrass, Italian", "summary_of_the_method": "(§1)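 Seeded loam-sand soil (preemergence) or young potted plants of 2-18 cm (postemergence) received test chemical formulated with surfactant in a non-phytotoxic solvent. Pots were kept in the greenhouse for 13-15 days before a visual 0-100 control rating relative to controls.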"}, "[2]": {"system": "blackgrass (Alopecurus myosuroides)", "conditions": "Alopecurus myosuroides, pre-emergence, 336 h, scale 0 to 100, read-out: Plant response rating, Blackgrass", "summary_of_the_method": "as §1"}, "corn (Zea mays)": {"system": "corn (Zea mays)", "conditions": "Zea mays, pre-emergence, 336 h, scale 0 to 100", "summary_of_the_method": "as §1"}, "[3]": {"system": "giant foxtail (Setaria faberii)", "conditions": "Setaria faberi, pre-emergence, 336 h, scale 0 to 100, read-out: Plant response rating, Foxtail, Giant", "summary_of_the_method": "as §1"}, "[4]": {"system": "lambsquarters (Chenopodium album)", "conditions": "Chenopodium album, pre-emergence, 336 h, scale 0 to 100, read-out: Plant response rating, Lambsquarters", "summary_of_the_method": "as §1"}, "[5]": {"system": "large (Lg) crabgrass (Digitaria sanguinalis)", "conditions": "Digitaria sanguinalis, pre-emergence, 336 h, scale 0 to 100, read-out: Plant response rating, Crabgrass, Large", "summary_of_the_method": "as §1"}, "[6]": {"system": "morningglory (Ipomoea coccinea)", "conditions": "Ipomoea, pre-emergence, 336 h, scale 0 to 100, read-out: Plant response rating, Morningglory", "summary_of_the_method": "as §1"}, "[7]": {"system": "oilseed rape (Brassica napus)", "conditions": "Brassica napus, pre-emergence, scale 0 to 100, read-out: Plant response rating, Oilseed Rape", "summary_of_the_method": "as §1"}, "[8]": {"system": "pigweed (Amaranthus retroflexus)", "conditions": "Amaranthus retroflexus, pre-emergence, 336 h, scale 0 to 100, read-out: Plant response rating, Pigweed", "summary_of_the_method": "as §1"}, "[9]": {"system": "ragweed (common ragweed, Ambrosia elatior)", "conditions": "Ambrosia artemisiifolia, pre-emergence, 336 h, scale 0 to 100, read-out: Plant response rating, Ragweed", "summary_of_the_method": "as §1"}, "soybean (Glycine max)": {"system": "soybean (Glycine max)", "conditions": "Glycine max, pre-emergence, scale 0 to 100, read-out: Plant response rating, Soybean", "summary_of_the_method": "as §1"}, "[10]": {"system": "velvetleaf (Abutilon theophrasti)", "conditions": "Abutilon theophrasti, pre-emergence, scale 0 to 100, read-out: Plant response rating, Velvetleaf", "summary_of_the_method": "as §1"}, "[11]": {"system": "waterhemp (common waterhemp, Amaranthus rudis)", "conditions": "Amaranthus tuberculatus, pre-emergence, scale 0 to 100, read-out: Plant response rating, Waterhemp", "summary_of_the_method": "as §1"}, "[12]": {"system": "winter wheat (Triticum aestivum)", "conditions": "Triticum aestivum, pre-emergence, 336 h, scale 0 to 100, read-out: Plant response rating, Wheat", "summary_of_the_method": "as §1"}, "[13]": {"system": "yellow nutsedge (Cyperus esculentus)", "conditions": "Cyperus, pre-emergence, 336 h, scale 0 to 100, read-out: Plant response rating, Nutsedge, Yellow", "summary_of_the_method": "as §1"}},
  "data": [
    {"compound": "Fc1cccc(Oc2ncc(C(F)(F)F)cn2)c1Oc1ncc(Cl)cn1", "note": "[Compound 42, 5-chloro-2-[2-fluoro-6-[[5-(trifluoromethyl)-2-pyrimidinyl]oxy]phenoxy]pyrimidine]", "values": [
      {"measurement": "pest or weed control at 31 g/ha", "setting": "[1]; 31 g ai/ha, preemergence", "value": 70, "unit": "%"},
      {"measurement": "pest or weed control at 62 g/ha", "setting": "[1]; 62 g ai/ha, preemergence", "value": 80, "unit": "%"},
      {"measurement": "pest or weed control at 125 g/ha", "setting": "[1]; 125 g ai/ha, preemergence", "value": 95, "unit": "%"},
      {"measurement": "pest or weed control at 16 g/ha", "setting": "[1]; Preemergence, 16 g ai/ha", "value": 5, "unit": "%"},
      {"measurement": "pest or weed control at 31 g/ha", "setting": "[2]; 31 g ai/ha, preemergence", "value": 65, "unit": "%"},
      {"measurement": "pest or weed control at 62 g/ha", "setting": "[2]; 62 g ai/ha, preemergence", "value": 90, "unit": "%"},
      {"measurement": "pest or weed control at 125 g/ha", "setting": "[2]; 125 g ai/ha, preemergence", "value": 90, "unit": "%"},
      {"measurement": "pest or weed control at 16 g/ha", "setting": "[2]; Preemergence, 16 g ai/ha", "value": 35, "unit": "%"},
      {"measurement": "Corn plant response rating (crop injury, 0 = no effect, 100 = complete kill) at 31 g/ha", "setting": "corn (Zea mays); 31 g ai/ha, preemergence", "value": 5, "unit": "%"},
      {"measurement": "Corn plant response rating (crop injury, 0 = no effect, 100 = complete kill) at 62 g/ha", "setting": "corn (Zea mays); 62 g ai/ha, preemergence", "value": 80, "unit": "%"},
      {"measurement": "Corn plant response rating (crop injury, 0 = no effect, 100 = complete kill) at 125 g/ha", "setting": "corn (Zea mays); 125 g ai/ha, preemergence", "value": 85, "unit": "%"},
      {"measurement": "Corn plant response rating (crop injury, 0 = no effect, 100 = complete kill) at 16 g/ha", "setting": "corn (Zea mays); Preemergence, 16 g ai/ha", "value": 0, "unit": "%"},
      {"measurement": "pest or weed control at 31 g/ha", "setting": "[3]; 31 g ai/ha, preemergence", "value": 100, "unit": "%"},
      {"measurement": "pest or weed control at 62 g/ha", "setting": "[3]; 62 g ai/ha, preemergence", "value": 100, "unit": "%"},
      {"measurement": "pest or weed control at 125 g/ha", "setting": "[3]; 125 g ai/ha, preemergence", "value": 100, "unit": "%"},
      {"measurement": "pest or weed control at 16 g/ha", "setting": "[3]; Preemergence, 16 g ai/ha", "value": 85, "unit": "%"},
      {"measurement": "pest or weed control at 31 g/ha", "setting": "[4]; 31 g ai/ha, preemergence", "value": 100, "unit": "%"},
      {"measurement": "pest or weed control at 62 g/ha", "setting": "[4]; 62 g ai/ha, preemergence", "value": 100, "unit": "%"},
      {"measurement": "pest or weed control at 125 g/ha", "setting": "[4]; 125 g ai/ha, preemergence", "value": 100, "unit": "%"},
      {"measurement": "pest or weed control at 16 g/ha", "setting": "[4]; Preemergence, 16 g ai/ha", "value": 100, "unit": "%"},
      {"measurement": "pest or weed control at 31 g/ha", "setting": "[5]; 31 g ai/ha, preemergence", "value": 100, "unit": "%"},
      {"measurement": "pest or weed control at 62 g/ha", "setting": "[5]; 62 g ai/ha, preemergence", "value": 100, "unit": "%"},
      {"measurement": "pest or weed control at 125 g/ha", "setting": "[5]; 125 g ai/ha, preemergence", "value": 100, "unit": "%"},
      {"measurement": "pest or weed control at 16 g/ha", "setting": "[5]; Preemergence, 16 g ai/ha", "value": 100, "unit": "%"},
      {"measurement": "pest or weed control at 31 g/ha", "setting": "[6]; 31 g ai/ha, preemergence", "value": 85, "unit": "%"},
      {"measurement": "pest or weed control at 62 g/ha", "setting": "[6]; 62 g ai/ha, preemergence", "value": 100, "unit": "%"},
      {"measurement": "pest or weed control at 125 g/ha", "setting": "[6]; 125 g ai/ha, preemergence", "value": 100, "unit": "%"},
      {"measurement": "pest or weed control at 16 g/ha", "setting": "[6]; Preemergence, 16 g ai/ha", "value": 60, "unit": "%"},
      {"measurement": "plant injury at 31 g/ha", "setting": "[7]; 31 g ai/ha, preemergence", "value": 100, "unit": "%"},
      {"measurement": "plant injury at 62 g/ha", "setting": "[7]; 62 g ai/ha, preemergence", "value": 100, "unit": "%"},
      {"measurement": "plant injury at 125 g/ha", "setting": "[7]; 125 g ai/ha, preemergence", "value": 100, "unit": "%"},
      {"measurement": "plant injury at 16 g/ha", "setting": "[7]; Preemergence, 16 g ai/ha", "value": 98, "unit": "%"},
      {"measurement": "pest or weed control at 31 g/ha", "setting": "[8]; 31 g ai/ha, preemergence", "value": 100, "unit": "%"},
      {"measurement": "pest or weed control at 62 g/ha", "setting": "[8]; 62 g ai/ha, preemergence", "value": 100, "unit": "%"},
      {"measurement": "pest or weed control at 125 g/ha", "setting": "[8]; 125 g ai/ha, preemergence", "value": 100, "unit": "%"},
      {"measurement": "pest or weed control at 16 g/ha", "setting": "[8]; Preemergence, 16 g ai/ha", "value": 100, "unit": "%"},
      {"measurement": "pest or weed control at 31 g/ha", "setting": "[9]; 31 g ai/ha, preemergence", "value": 55, "unit": "%"},
      {"measurement": "pest or weed control at 62 g/ha", "setting": "[9]; 62 g ai/ha, preemergence", "value": 98, "unit": "%"},
      {"measurement": "pest or weed control at 125 g/ha", "setting": "[9]; 125 g ai/ha, preemergence", "value": 90, "unit": "%"},
      {"measurement": "pest or weed control at 16 g/ha", "setting": "[9]; Preemergence, 16 g ai/ha", "value": 30, "unit": "%"},
      {"measurement": "plant injury at 31 g/ha", "setting": "soybean (Glycine max); 31 g ai/ha, preemergence", "value": 50, "unit": "%"},
      {"measurement": "plant injury at 62 g/ha", "setting": "soybean (Glycine max); 62 g ai/ha, preemergence", "value": 80, "unit": "%"},
      {"measurement": "plant injury at 125 g/ha", "setting": "soybean (Glycine max); 125 g ai/ha, preemergence", "value": 95, "unit": "%"},
      {"measurement": "plant injury at 16 g/ha", "setting": "soybean (Glycine max); Preemergence, 16 g ai/ha", "value": 25, "unit": "%"},
      {"measurement": "pest or weed control at 31 g/ha", "setting": "[10]; 31 g ai/ha, preemergence", "value": 100, "unit": "%"},
      {"measurement": "pest or weed control at 62 g/ha", "setting": "[10]; 62 g ai/ha, preemergence", "value": 100, "unit": "%"},
      {"measurement": "pest or weed control at 125 g/ha", "setting": "[10]; 125 g ai/ha, preemergence", "value": 100, "unit": "%"},
      {"measurement": "pest or weed control at 16 g/ha", "setting": "[10]; Preemergence, 16 g ai/ha", "value": 100, "unit": "%"},
      {"measurement": "pest or weed control at 31 g/ha", "setting": "[11]; 31 g ai/ha, preemergence", "value": 100, "unit": "%"},
      {"measurement": "pest or weed control at 62 g/ha", "setting": "[11]; 62 g ai/ha, preemergence", "value": 100, "unit": "%"},
      {"measurement": "pest or weed control at 125 g/ha", "setting": "[11]; 125 g ai/ha, preemergence", "value": 100, "unit": "%"},
      {"measurement": "pest or weed control at 16 g/ha", "setting": "[11]; Preemergence, 16 g ai/ha", "value": 95, "unit": "%"},
      {"measurement": "plant injury at 31 g/ha", "setting": "[12]; 31 g ai/ha, preemergence", "value": 30, "unit": "%"},
      {"measurement": "plant injury at 62 g/ha", "setting": "[12]; 62 g ai/ha, preemergence", "value": 45, "unit": "%"},
      {"measurement": "plant injury at 125 g/ha", "setting": "[12]; 125 g ai/ha, preemergence", "value": 90, "unit": "%"},
      {"measurement": "plant injury at 16 g/ha", "setting": "[12]; Preemergence, 16 g ai/ha", "value": 0, "unit": "%"},
      {"measurement": "pest or weed control at 31 g/ha", "setting": "[13]; 31 g ai/ha, preemergence", "value": 10, "unit": "%"},
      {"measurement": "pest or weed control at 62 g/ha", "setting": "[13]; 62 g ai/ha, preemergence", "value": 50, "unit": "%"},
      {"measurement": "pest or weed control at 125 g/ha", "setting": "[13]; 125 g ai/ha, preemergence", "value": 75, "unit": "%"},
      {"measurement": "pest or weed control at 16 g/ha", "setting": "[13]; Preemergence, 16 g ai/ha", "value": 0, "unit": "%"}
    ]}
  ]
}
